Literature values, collected in patent publication US20070213270A1, “PEPTIDE YY FORMULATIONS HAVING INCREASED STABILITY AND RESISTANCE TO MICROBIAL AGENTS” (priority 2004, published 2007).
Values belong to the molecule of their own block, whether it stands above or below them.

Assays:
[1] = aqueous solution at physiologic pH

effectiveness in enzyme inhibition relative to bestatin (aminopeptidases): more than 100 times
effectiveness in enzyme inhibition relative to puromycin (aminopeptidases): more than 1000 times
Molecule: CC(C)CC(N)B(O)O (centres unmarked) [boro-leucine]

Molecule: NCCN(CCN)/[N+]([O-])=N/O [diethylenetriamine/NO (DETANO), diethylenetriamine/NO]
rate of NO release [1]: approximately 20 hours

Molecule: CCN(CC)/[N+]([O-])=N/O.CCNCC [diethylamine/NO]
rate of NO release [1]: < 3 min

Molecule: 2-alkyl-4-hydroxyquinolines [pyo compound]
concentration producing ciliostasis / inhibiting ciliary motility (ciliary motility): 50 µg/mL
